Experimental data taken from PubChem BioAssay AID1648 (Sanford-Burnham Center for Chemical Genomics, 2009).
The source made the active and inactive calls. How the calls were made is not given here.

Molecular target: Serine/threonine-protein kinase mTOR (Homo sapiens) (UniProt P42345)
Assay: binders of mTOR FRB domain, biophysical, NMR (AID 1648)
Details: NMR binding to FRB domain, chemical shift

Chain of Serine/threonine-protein kinase mTOR (Homo sapiens) (P42345 2015-2114): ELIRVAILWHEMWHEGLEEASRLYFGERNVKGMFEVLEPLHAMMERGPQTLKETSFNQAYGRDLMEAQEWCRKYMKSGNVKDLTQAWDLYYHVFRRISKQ

SMILES	Kd
OCc1ccc2c(c1)OCCO2	> 4 mM (inactive)
CC(=O)NC(=S)Nc1ccc(C(C)=O)cc1	> 4 mM (inactive)
CC(=O)c1cc2c(cc1O)OC(C)(C)C=C2	> 4 mM (inactive)
Cc1sc(N)c(C(N)=O)c1C	> 4 mM (inactive)
Cc1cc(C)nc(/N=C(/N)N2CCOCC2)n1	> 4 mM (inactive)
O=C(NC1CCS(=O)(=O)C1)C1CCCCC1 (stereo unspecified)	> 4 mM (inactive)
Cn1c(=O)c2ccccc2n(Cc2ccccc2F)c1=O	> 4 mM (inactive)
O=C(O)c1ccc(N2CCCCC2)cc1	> 4 mM (inactive)
CC(C)C(C)/C=C/C(C)[C@H]1CCC2C3=CCC4CC(=O)CC[C@]4(C)C3CC[C@@]21C (stereo partly specified)	> 4 mM (inactive)
C=CC1=C(C)/C(=C/c2[nH]c(Cc3[nH]c(/C=C4\NC(=O)C(C)=C4C=C)c(C)c3CCC(=O)O)c(CCC(=O)O)c2C)NC1=O	> 4 mM (inactive)
OCc1ccc(N2CCOCC2)nc1	> 4 mM (inactive)
O=C(Nc1ccccc1C(F)(F)F)c1cnccn1	> 4 mM (inactive)
Nc1ncnc(NCc2cccnc2)c1[N+](=O)[O-]	> 4 mM (inactive)
Cc1n[nH]c(=O)c2ncn(C)c12	> 4 mM (inactive)
COc1ccc(-c2coc3c(OC)c(OC)cc(O)c3c2=O)cc1	> 4 mM (inactive)
COc1c(F)c(F)c(-c2csc(N)n2)c(F)c1F	> 4 mM (inactive)
O=c1ccn(Cc2ccccc2)c(=O)[nH]1	> 4 mM (inactive)
COc1ccc(C(=O)/C=C/c2ccccc2)cc1	> 4 mM (inactive)
CC(=O)OCC(=O)[C@@]1(O)CCC2C3CC[C@@H]4C[C@H](O)CC[C@]4(C)C3C(=O)C[C@@]21C (stereo partly specified)	> 4 mM (inactive)
O=S(=O)(N1CCOCC1)n1nnc2ccccc21	> 4 mM (inactive)
CC(=O)NC(=S)Nc1ccccc1C	> 4 mM (inactive)

SMILES	Kd
CNC(=O)C(=O)Nc1cccc(Cl)c1	> 4 mM (inactive)
Cc1cc(O)cc(=O)o1	> 4 mM (inactive)
N#CCSc1nc(-c2ccccc2)cs1	> 4 mM (inactive)
Oc1ccc(C2SCCS2)cc1	> 4 mM (inactive)
COC(=O)/C(=C1\OC(=O)C(c2ccccc2)C1=O)c1ccccc1 (stereo unspecified)	> 4 mM (inactive)
COc1ccc(Cc2nccc3cc(OC)c(OC)cc23)cc1OC	> 4 mM (inactive)
N#Cc1cc2c(nc1SCc1ccncc1)CCC2	> 4 mM (inactive)
CON(C)C(=O)Nc1ccc(Cl)cc1	> 4 mM (inactive)
CCNC(=S)N1CCCC(C(N)=O)C1 (stereo unspecified)	> 4 mM (inactive)
NC1CS(=O)(=O)CC1O (stereo unspecified)	> 4 mM (inactive)
c1ccc(SCc2nc(-c3ccncc3)no2)cc1	> 4 mM (inactive)
NC(=O)Cn1nc2c3c(cccc3c1=O)-c1ccccc1-2	> 4 mM (inactive)
CC[C@H](CCC(C)[C@H]1CCC2C3CCC4C[C@@H](O)CC[C@]4(C)C3CC[C@@]21C)C(C)C (stereo partly specified)	> 4 mM (inactive)
CC(=O)NS(=O)(=O)c1ccc(C)cc1	> 4 mM (inactive)
Cc1ccc(SCC(=O)N2CCOCC2)cc1	> 4 mM (inactive)
O=[N+]([O-])c1ccc(/C=N/c2ncn[nH]2)cc1	> 4 mM (inactive)
O=C(O)Cn1cc(C(=O)c2cccs2)c2ccccc21	> 4 mM (inactive)
O=C1CSC(=O)N1CN1CCCC1	> 4 mM (inactive)
S=C(NCc1cccnc1)NC1CC1	> 4 mM (inactive)
c1ccc(-c2n[nH]c(-c3ccccn3)n2)nc1	> 4 mM (inactive)
Cc1cc(C(=O)NCc2ccccc2Br)no1	> 4 mM (inactive)

SMILES	Kd
NC(=O)C1(S(=O)(=O)c2ccccc2)CC1	> 4 mM (inactive)
CC(C)NC(=S)NCc1cnn(C)c1	> 4 mM (inactive)
OCc1ccc2ncccc2c1	> 4 mM (inactive)
O=C(O)CC1C(=O)NCCN1Cc1ccccc1 (stereo unspecified)	> 4 mM (inactive)
O=C1c2ccccc2-c2ncnc3cccc1c23	> 4 mM (inactive)
COc1cc(/C=C/C(=O)O)cc(OC)c1OC	> 4 mM (inactive)
O=C1NC(=O)/C(=C\c2ccco2)S1	> 4 mM (inactive)
CC1(C)CN=C(Nc2nc3ccccc3s2)S1	> 4 mM (inactive)
O=C(O)CS(=O)(=O)c1ccccc1	> 4 mM (inactive)
O=C(c1ccccc1)N1CCNCC1	> 4 mM (inactive)
CCOC(=O)CSCC(=O)Nc1nccs1	> 4 mM (inactive)
CC(=O)Nc1cccc(-c2nnc(-c3ccccc3)o2)c1	> 4 mM (inactive)
O=C(O)C1CC(=O)N(Cc2ccc(F)cc2)C1 (stereo unspecified)	> 4 mM (inactive)
O=c1cc(-c2ccc(O)cc2)oc2cc(O)cc(O)c12	> 4 mM (inactive)
CCC(=O)Oc1ccc(N2C(=O)CCC2=O)cc1	> 4 mM (inactive)
COc1ccc(NC2=NCC(C)S2)cc1 (stereo unspecified)	> 4 mM (inactive)
COC(=O)c1cc2cc(N)ccc2s1	> 4 mM (inactive)
O=C(Nc1ccon1)c1ccccc1Cl	> 4 mM (inactive)
CC(=O)c1cccc(NC(=O)NN2CCOCC2)c1	> 4 mM (inactive)
